Where only a bound is given, the exact number is not on record here.

From patent US20260317356A1, “SMALL MOLECULE MODULATORS OF OGG1” (AZKARRA THERAPEUTICS, INC., priority 2023, published 2026) come the findings set out here.

The target of test [1] is T1, hOGG1 (Homo sapiens, UniProt O15527). Description: Surface Plasma Resonance with hOGG1 to measure compound affinity (OGG1 SPR Kd). Format: binding. Further details: Protein His-hOGG1 (12-323) was prepared. Conditions: Biacore T-200, immobilized his-tagged OGG1; pH 7.4; 2% DMSO; single-cycle kinetics. How it is done:
Surface Plasma Resonance with hOGG1 to Measure Compound Affinity (OGG1 SPR Kd); All the SPR studies were performed on a Biacore T-200 instrument (Cytiva life sciences) using series S NTA sensor chip (cat #BR-1005-32, Cytiva life sciences). Recombinant his-tagged OGG1 (mol. wt. 36003; ChemPartner, Shanghai, China) was immobilized on NTA sensor chip via Ni^2+/NTA chelation using NTA reagent kit (Cytiva life sciences; cat #289950) as per manufacturer's recommended protocol. The running buffer during immobilization contained HEPES (20 mM, pH 7.4), 150 mM NaCl, 0.5 mM TCEP (tris(2-carboxyethyl)phosphine), and 0.005% Tween-20. NTA sensor chip (experimental cell) was first conditioned by injecting regeneration solution (350 mM EDTA, flow rate 30 μL/min, 2 injections 60 each). Additional wash with 50 mM NaOH was used whenever the chip was regenerated (flow rate 30 μL/min, 1 injection of 60 s). The sensor chip was then activated with 0.5 mM NiCl2 (flow rate 10 μL/min, 2 injection of 60 s, leading to a baseline increase of ~40 RU), and the excess Ni^2+ was removed using immobilization buffer containing 3 mM EDTA (flow rate 10 μL/min, 1 injection of 60 s). Finally, OGG1 (diluted to 6.2 μg/mL in running buffer) was injected on the activated sensor chip at a flow rate of 10 μL/min until immobilization level reached ~6000 RU. Any loosely bound protein was removed by passing the immobilization buffer overnight at 20 μL/min. At this point, the drift in baseline was ~0.01 RU/s and the final immobilization level was ~2500 RU. Reference cell was left untreated. SPR binding experiments were performed using binding buffer (20 mM HEPES (pH 7.4), 150 mM NaCl, 0.5 mM TCEP, 0.005% Tween-20, and 2% DMSO) at a flow rate of 30 μL/min. Single-cycle kinetics approach was used for binding analysis which consisted of sequential injections of increasing concentrations of test compound (a 3-fold serial dilution with 5 concentrations; highest 750 or 1500 nM; with final DMSO concentration at 2%) over the immobilized protein without regeneration step between each sample injection. Each injection was 45 seconds long (contact time), followed by a final dissociation of 600 sec. The Biacore T-200 Evaluation software 3.1 (GE Healthcare) was used to determine kinetic parameters from SPR data. All the reported sensograms were reference subtracted and corrected for refractive index contributions from solvent using 8-point solvent correction (1.4 to 2.8% DMSO in binding buffer). Data were fit to both steady state and 1:1 kinetic model to obtain Kon, Koff and binding affinity (Kd).

The target of test [2] is T1, hOGG1. Kind of test: Biochemical fluorescence assay to measure enzymatic activity of hOGG1 (OGG1/APEX IC50). Details: Protein His-hOGG1 (12-323) was prepared; His (N); host or cells: E. coli. Conditions: 1 nM OGG1+2 nM APEX+6 nM dsDNA (8-oxo-dG substrate); pH 7.5; RT 40 min; read-out: OGG1/APEX IC50. In short, it runs like this:
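His-hOGG1 (12-323, E. coli) at 1 nM with 2 nM hAPE1/APEX1, preincubated 20 min RT with compound. Then 6 nM 8-oxo-dG dsDNA substrate added, 40 min at RT in Tris pH 7.5, 100 mM KCl. TAMRA fluorescence (Ex520/Em600) converted to % inhibition vs controls; IC50 from 3-parameter fit of 10-point curve.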

T1 sequence (O15527 12-323): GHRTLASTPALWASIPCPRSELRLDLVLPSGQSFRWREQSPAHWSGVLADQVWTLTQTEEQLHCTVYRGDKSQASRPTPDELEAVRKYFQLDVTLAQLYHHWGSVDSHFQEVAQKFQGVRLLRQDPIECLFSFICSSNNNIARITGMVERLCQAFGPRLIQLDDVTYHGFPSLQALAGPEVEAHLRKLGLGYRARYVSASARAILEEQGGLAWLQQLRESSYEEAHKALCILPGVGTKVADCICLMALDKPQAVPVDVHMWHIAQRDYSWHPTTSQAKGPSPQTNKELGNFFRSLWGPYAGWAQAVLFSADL

At hOGG1 [1], `COc1cc(NC(=O)[C@H]2CC[C@@H](N3Cc4c(C)ccc(P(C)(C)=O)c4NC3=O)CC2)ccc1C` [Example 5, (1s,4s)-4-(8-(Dimethylphosphoryl)-5-methyl-2-oxo-1,2-dihydroquinazolin-3(4H)-yl)-N-(3-methoxy-4-methylphenyl)cyclohexanecarboxamide] yielded a Kd of no more than 10 nM. Besides, the IC50 at hOGG1 [2] lay in the range of 100 to 1000 nM.

In turn, `COc1ccc(NC(=O)[C@H]2CC[C@@H](N3Cc4c(C)cccc4C3=O)CC2)cc1C` [Example 227, (1s,4s)-N-(4-Methoxy-3-methylphenyl)-4-(4-methyl-1-oxoisoindolin-2-yl)cyclohexanecarboxamide] came in with a Kd on hOGG1 [1] of 10 to 100 nM. Also, the IC50 at hOGG1 [2] was in the range of 100 to 1000 nM.

As to `CNCCNc1cc(C)c2c(c1)C(=O)N([C@H]1CC[C@@H](C(=O)Nc3ccc(C)c(OC)c3)CC1)C2` [Example 193, (1s,4s)-N-(3-methoxy-4-methylphenyl)-4-(4-methyl-6-(2-(methylamino)ethylamino)-1-oxoisoindolin-2-yl)cyclohexanecarboxamide], the Kd on hOGG1 [1] was 10 to 100 nM. Besides, the IC50 on hOGG1 [2] was less than 100 nM.

For the molecule `COc1ccc(NC(=O)[C@H]2CC[C@@H](N3Cc4c(C)cc(NCCN(C)C)cc4C3=O)CC2)cc1C#N` [Example 259, (1s,4s)-N-(3-Cyano-4-methoxyphenyl)-4-(6-(2-(dimethylamino)ethylamino)-4-methyl-1-oxoisoindolin-2-yl)cyclohexanecarboxamide], on hOGG1 [1], the Kd was in the range of 10 to 100 nM. At hOGG1 [2], the IC50 was less than 100 nM.

In the case of `COc1cc(NC(=O)[C@H]2CC[C@@H](N3Cc4c(C)ccc(C#N)c4C3=O)CC2)ccc1C` [Example 143, (1s,4s)-4-(7-Cyano-4-methyl-1-oxoisoindolin-2-yl)-N-(3-methoxy-4-methylphenyl)cyclohexanecarboxamide], on hOGG1 [1], the Kd is 10 to 100 nM. At hOGG1 [2], the IC50 is less than 100 nM.

`COc1ccc(NC(=O)[C@H]2CC[C@@H](N3Cc4c(C)ccnc4NC3=O)CC2)cc1C` [Example 16, (1s,4s)-N-(4-Methoxy-3-methylphenyl)-4-(5-methyl-2-oxo-1,2-dihydropyrido[2,3-d]pyrimidin-3(4H)-yl)cyclohexanecarboxamide] came in with a Kd on hOGG1 [1] of no more than 10 nM. For the same molecule, the IC50 at hOGG1 [2] is less than 100 nM.

Turning to `COc1ccc(NC(=O)[C@H]2CC[C@@H](N3Cc4c(C)cc(NCCN(C)C)cc4C3=O)CC2)cc1C` [Example 256, (1s,4s)-4-(6-(2-(Dimethylamino)ethylamino)-4-methyl-1-oxoisoindolin-2-yl)-N-(4-methoxy-3-methylphenyl)cyclohexanecarboxamide], at hOGG1 [1], the Kd was no more than 10 nM. The IC50 at hOGG1 [2] was less than 100 nM.

Consider `COc1ccc(NC(=O)[C@H]2CC[C@@H](N3Cc4c(C)cc(NCCN(C)C)cc4NC3=O)CC2)cc1C#N` [Example 99, (1s,4s)-N-(3-cyano-4-methoxyphenyl)-4-(7-(2-(dimethylamino)ethylamino)-5-methyl-2-oxo-1,2-dihydroquinazolin-3(4H)-yl)cyclohexanecarboxamide], for which, on hOGG1 [1], the Kd lay within 10 to 100 nM. Further, the IC50 on hOGG1 [2] is less than 100 nM.

At hOGG1 [1], `COc1cc(NC(=O)[C@H]2CC[C@@H](N3Cc4c(C)ccc(CN)c4NC3=O)CC2)ccc1C` [Example 58, (1s,4s)-4-(8-(aminomethyl)-5-methyl-2-oxo-1,2-dihydroquinazolin-3(4H)-yl)-N-(3-methoxy-4-methylphenyl)cyclohexanecarboxamide] displayed a dissociation constant Kd of 10 to 100 nM. Besides, the IC50 on hOGG1 [2] was less than 100 nM.

In the case of `COc1cc(NC(=O)[C@H]2CC[C@@H](N3Cc4c(C)ccc(C#N)c4NC3=O)CC2)ccc1C` [Example 59, (1s,4s)-4-(8-cyano-5-methyl-2-oxo-1,2-dihydroquinazolin-3(4H)-yl)-N-(3-methoxy-4-methylphenyl)cyclohexanecarboxamide], the Kd at hOGG1 [1] lay in the range of 10 to 100 nM. Moreover, on hOGG1 [2], the IC50 is less than 100 nM.

On hOGG1 [1], `COc1cc(NC(=O)[C@]2(C)CC[C@H](N3Cc4c(C)cccc4C3=O)CC2)ccc1C` [Example 277, (1s,4s)-N-(3-methoxy-4-methylphenyl)-1-methyl-4-(4-methyl-1-oxoisoindolin-2-yl)cyclohexane-1-carboxamide] registered a dissociation constant Kd of 10 to 100 nM. In addition, the IC50 on hOGG1 [2] was 100 to 1000 nM.

On to `COc1ccc(NC(=O)[C@H]2CC[C@@H](N3Cc4c(C)ccc(OC)c4NC3=O)CC2)cc1C#N` [Example 2, (1s,4s)-N-(3-Cyano-4-methoxyphenyl)-4-(8-methoxy-5-methyl-2-oxo-1,2-dihydroquinazolin-3(4H)-yl)cyclohexanecarboxamide], for which the Kd on hOGG1 [1] was in the range of 10 to 100 nM. Besides, on hOGG1 [2], the IC50 fell in the range of 100 to 1000 nM.

As to `COc1ccc(NC(=O)[C@H]2CC[C@@H](N3Cc4c(C)cc(NCCN(C)C)cc4C3=O)CC2)cc1Cl` [Example 260, (1s,4s)-N-(3-Chloro-4-methoxyphenyl)-4-(6-(2-(dimethylamino)ethylamino)-4-methyl-1-oxoisoindolin-2-yl)cyclohexanecarboxamide], on hOGG1 [1], the Kd lay in the range of 10 to 100 nM. Further, the IC50 at hOGG1 [2] is less than 100 nM.

The molecule `COc1ccc(NC(=O)[C@]2(C)CC[C@H](N3Cc4c(C)ccc(OC)c4NC3=O)CC2)cc1C` (single isomer, unassigned) [Example 11, (1s,4s)-N-(3-methyl-4-methoxyphenyl)-4-(8-methoxy-5-methyl-2-oxo-1,2-dihydroquinazolin-3(4H)-yl)-1-methylcyclohexanecarboxamide] yielded a Kd on hOGG1 [1] of no more than 10 nM. In addition, the IC50 at hOGG1 [2] is less than 100 nM.

On to `COc1cc(NC(=O)[C@H]2CC[C@@H](N3Cc4c(C)ccnc4NC3=O)CC2)ccc1C` [Example 41, (1s,4s)-N-(3-Methoxy-4-methylphenyl)-4-(5-methyl-2-oxo-1,2-dihydropyrido[2,3-d]pyrimidin-3(4H)-yl)cyclohexanecarboxamide], for which the Kd on hOGG1 [1] lay within 10 to 100 nM. The IC50 on hOGG1 [2] was less than 100 nM.

In turn, `COc1cc(NC(=O)[C@H]2CC[C@@H](N3Cc4c(C)cc(CN)cc4NC3=O)CC2)ccc1C` [Example 28, (1s,4s)-4-(7-(Aminomethyl)-5-methyl-2-oxo-1,2-dihydroquinazolin-3(4H)-yl)-N-(3-methoxy-4-methylphenyl)cyclohexanecarboxamide] showed a Kd at hOGG1 [1] of no more than 10 nM. The IC50 at hOGG1 [2] is less than 100 nM.

`COc1ccc(NC(=O)[C@]2(C)CC[C@H](N3Cc4c(C)ccc(OC)c4NC3=O)CC2)cc1Cl` (single isomer, unassigned) [Example 7, (1s,4s)-N-(3-chloro-4-methoxyphenyl)-4-(8-methoxy-5-methyl-2-oxo-1,2-dihydroquinazolin-3(4H)-yl)-1-methylcyclohexanecarboxamide] yielded a Kd at hOGG1 [1] of 10 to 100 nM. Also, the IC50 on hOGG1 [2] is less than 100 nM.
